The text below walks through data of article PMC9228955, “Synthesis, Physicochemical, Labeling and In Vivo Characterization of ^44Sc-Labeled DO3AM-NI as a Hypoxia-Sensitive PET Probe” (Pharmaceuticals, 2022).

Each structure is given as a SMILES string.

Series [1] is described as follows: Stability constant of Sc(III) complex by 1H and 45Sc NMR batch samples and pH-potentiometric titration; pSc calculation. It counts as physicochemical. Particulars: 0.15 M NaCl, 37 °C. The protocol:
The stability constant of the Sc(DO3AM-NI) complex was assessed by ^1H and ^45Sc-NMR studies using samples prepared in the 0.055–0.195 M acid concentration range. […] Absence of protonation and the presence of a ternary hydroxydo species formation with KScL•OH = 10.88(5) were detected at our experimental conditions. The NMR samples contained 3.32 mM ligand, ScCl3 and a constant ionic strength of 0.15 M NaCl. The samples were thermostated at 37 °C, and their ^1H- and ^45Sc-NMR spectra were recorded after 60 days. In order to ensure that the equilibrium in the samples was attained, the ^1H and ^45Sc-NMR measurements were repeated again 90 days later. The spectra were practically identical with the spectra recorded at 60 days (Figures S4 and S5). As expected, the thermodynamic stability constant of the Sc(DO3AM-NI) complex (log KScL = 22.36(4)) was considerably lower than those of Sc(III) complexes formed with DOTA, DTPA or AAZTA ligands (Table 1). A moderate decrease in terms of thermodynamic stability constants was already observed for the complexes of DO3A-monamides formed with Gd(III) ions in comparison to the stability of parent Gd(DOTA)^− chelate. Despite the lower stability constant of the complex, the Sc(III) ion was complexed completely around pH = 2.0 (in a millimolar concentration range, see Figure 2). However, it might be misleading to directly compare the stability constants of the complexes formed by ligands of different basicity (as it depends on the basicity of the ligand); therefore, we calculated and compared the pSc values (which could be treated as conditional constants) for the complexes shown in Table 1 by taking the protonation constants of ligands, the stability constants of the complex species present in solution and the hydrolysis of the Sc(III) ion (according to Ref. [23]: log βSc(OH) = −4.3, log βSc(OH)2 = −9.7, log βSc(OH)3 = −16.1, log βSc(OH)4 = −26.0 and log βSc2(OH)4 = −6.0) into account.
The equilibrium measurements were performed at constant ionic strength maintained by 0.15 M NaCl at 37 °C. For determining the protonation constants of DO3AM-NI, two parallel pH-potentiometric titrations were performed with 0.1611 M NaOH in a 5.00 cm^3 sample containing the ligand at the concentration of 2.76 mM. The stability constant of Sc(DO3AM-NI) was assessed by ^1H and ^45Sc NMR in 0.7 mL “batch” samples containing the metal and the ligand at 3.32 mM and different concentrations of strong acid (0.05–0.20 M) aged 90 days (see below). The formation of protonated and ternary hydroxydo complex species was probed by pH-potentiometric titration by titrating the preformed complex (at a concentration of 1.95 mM) with standardized NaOH solution. For the calculation of the logKMH-1L value, the VNaOH–pH data used were obtained in the pH range 1.68–11.85. The pH-potentiometric titrations were carried out with a Metrohm 785 DMP Titrino titration workstation with the use of a Metrohm-6.0233.100-combined electrode calibrated via a two-point calibration routine using KH-phthalate (pH = 4.005) and borax (pH = 9.177) buffers. The titrated samples were stirred with a magnetic stirrer, and N2 gas was bubbled through the solutions to avoid the effect of CO2. For the calculation of [H^+] from the measured pH values, the method proposed by Irving et al. was applied. For this, a 0.01M HCl solution was titrated with the standardized NaOH solution in the presence of 0.15 M NaCl ionic strength at 37 °C. The differences between the measured (pHread) and calculated pH (-log[H^+]) values were used to obtain the equilibrium H^+ concentration from the pHmeas values during the titrations. […] For the calculation of the equilibrium constants, the PSEQUAD program was used.
^1H- and ^45Sc-NMR measurements (400 MHz and 97 MHz, respectively) were performed with a Bruker DRX 400 (9.4 T) spectrometer equipped with a Bruker VT-1000 thermocontroller and a BB inverse z-gradient probe (5 mm). […]

Series [2] in a line: Formation rate of Sc(DO3AM-NI) at acidic pH followed by 1H and 45Sc NMR. Particulars: pH = 1.52, 25 °C, 3.80 mM ligand, 4.90 mM ScCl3. It is filed as physicochemical. The protocol:
This is promising for the labeling studies, yet it also underlines that the so-called “batch-method” must be applied in very acidic samples for the determination of the stability constant of the Sc(DO3AM-NI) chelate.
^1H- and ^45Sc-NMR measurements (400 MHz and 97 MHz, respectively) were performed with a Bruker DRX 400 (9.4 T) spectrometer equipped with a Bruker VT-1000 thermocontroller and a BB inverse z-gradient probe (5 mm). The kinetic experiments were performed at 25 °C, whereas the equilibrium studies were performed at 37 °C in aqueous solutions using D2O (in capillary) for locking. Typical parameters of ^45Sc-NMR measurements used were pulse length p1 = 15.6 μs (90°), relaxation delay d1 = 0.1 s and 128 scans. The formation reaction of the Sc(DO3AM-NI) complex was followed by ^1H- and ^45Sc-NMR spectroscopy in a sample containing 3.80 mM ligand and 4.90 mM ScCl3 with a total acid concentration corresponding to a pH of 1.54. […] Actually, the intensity of the ^45Sc-NMR signal of Sc(III)aq could precisely be measured while that of the broad signal corresponding to the Sc(DO3AM-NI) complex could not. […] The molar integral values of the ^45Sc-NMR signal of Sc(III)aq were determined by recording the ^45Sc-NMR spectra of a 50 mM ScCl3 solution containing 0.015 M HCl as a reference sample. […]

Turning to `O=C([O-])CN1CCN(CC(=O)[O-])CCN(CC(=O)NCCn2ccnc2[N+](=O)[O-])CCN(CC(=O)[O-])CC1.[Sc+3]` [Sc(DO3AM-NI)], in series [1], the “log KScL•OH (ternary hydroxydo species)” value is on record as 10.88(5) and the “log KSc•L (stability constant of Sc(III) complex)” value is given as 22.36(4). For the same compound, the “pH around which the Sc(III) ion is complexed completely” value in series [1] (millimolar concentration range) is on record as about 2.0. Moreover, the “time for complex formation to reach equilibrium” value in series [2] is “about twelve”.
